Laboratory results reported in patent US9005678B1, “Pharmaceutical composition for treating cancer and use thereof” (Jiangsu Province Institute of Traditional Chinese Medicine, priority 2013, dated 2015).

Legend:
[1] = Body weight of CIPN rats (oxaliplatin-induced peripheral neuropathy model); assay type: in vivo, rat; settings: oxaliplatin 4 mg/kg i.p. twice per week; after 7 days of modeling
Excerpt: (§1) Animals were housed 3 per cage in a temperature- and humidity-controlled environment under a 12/12-h light/dark cycle. Food and water were freely available. All experimental procedures were approved by the Animal Experimental committee of Jiangsu Province Academy of Traditional Chinese Medicine. All efforts were made to minimize the number of animals used and their suffering.
(§2) (1) Animal Grouping: the rats were randomly divided into five groups by using randomized grouping method (N=10 rats/group):
(§3) Group 1: saline (control group)
(§4) (2) Modeling and Administration: The first day of drug treatment was referred to as d1. […] After the last administration, the rats were sacrificed. Spinal cord and L5 dorsal root ganglia were harvested from all experimental animals, and taken to make tissue sections, which were stained with Nissl staining to observe the extent of damage in neurons. The expressions of pain-related TRP ion channel proteins, TRPMS, TRPV1, and TRPA1mRNA, in dorsal root ganglion tissue were determined by qPCR assay. (4) Von Frey test for mechanical allodynia: According to the method described by Chaplan et al^[22], the mechanical allodynia was assessed by von Frey test. Rats were placed in a clear plastic box (22×12×22 cm) with a wire mesh floor and allowed to habituate for 15 min prior to testing. […] 3.

CIPN rats = assay: Von Frey test for mechanical allodynia in CIPN rats; assay type: in vivo, rat; settings: oxaliplatin 4 mg/kg i.p.; 14 days after the experiment; P<0.05
Excerpt: as §1, §2, §3, §4

DRG neurons = assay: Nissl staining of L5 dorsal root ganglia sections of CIPN rats; assay type: in vivo, rat; settings: oxaliplatin 4 mg/kg i.p.
Method: as §4

TRPM8 mRNA = TRPM8 mRNA expression in DRG by real-time PCR; assay type: in vivo, rat; settings: L4-L6 DRG; oxaliplatin model group; P<0.01
Method: as §4, with “Withdrawal responses to the stimulation of von Frey filaments were recorded and paw withdrawal thresholds were determined by a modified up-down method. Each von Frey filament with equivalent force was measured for five times, and the time interval between simulations was 30 seconds, 3 or more times of positive reactions out of 5 simulations was deemed to be mechanical allodynia. […]” for “3.”
(§5) To elucidate the mechanism of the preventive effect of AC591 on oxaliplatin-induced peripheral neuropathy, we determined the expression of TRPM8, TRPV1 and TRPA1 mRNA in L4-L6 DRG using real-time PCR.

TRPV1 mRNA = TRPV1 mRNA expression in DRG by real-time PCR; assay type: in vivo, rat; settings: L4-L6 DRG; oxaliplatin model group; P<0.01
Method: as §4, with “Withdrawal responses to the stimulation of von Frey filaments were recorded and paw withdrawal thresholds were determined by a modified up-down method. Each von Frey filament with equivalent force was measured for five times, and the time interval between simulations was 30 seconds, 3 or more times of positive reactions out of 5 simulations was deemed to be mechanical allodynia. […]” for “3.”
as §5

TRPA1 mRNA = TRPA1 mRNA expression in DRG by real-time PCR; assay type: in vivo, rat; settings: L4-L6 DRG; oxaliplatin model group; P<0.01
Method: as §4, with “Withdrawal responses to the stimulation of von Frey filaments were recorded and paw withdrawal thresholds were determined by a modified up-down method. Each von Frey filament with equivalent force was measured for five times, and the time interval between simulations was 30 seconds, 3 or more times of positive reactions out of 5 simulations was deemed to be mechanical allodynia. […]” for “3.”
as §5

[2] = tested on: CT26 murine colorectal cancer cells; assay: Colorectal cancer subcutaneous xenograft, tumor volume; assay type: in vivo, Balb/c mice; settings: oxaliplatin 5 mg/kg i.p.; days 4 and 7; P<0.05
Method: Experimental Animals and Cell Lines: Six-week-old Balb/c mice weighing (16±2) g, bisexual each half, were purchased from Shanghai Slac Laboratory Animal Center and kept in SPF Laboratory Animal Room in Institute of Chinese Medicine and Pharmacy of Jiangsu Province. CT26 murine colorectal cancer cells were obtained from molecular biology laboratory of Institute of Chinese Medicine and Pharmacy of Jiangsu Province.
CT26 cells were cultured in Dulbecco's Modified Eagle Medium with 2.0 g/1 sodium bicarbonate plus 10% fetal bovine serum, 1% L-glutamine, 100 U/ml penicillin and 100 U/ml streptomycin. When the cells were approximately 80% confluent, the culture medium was discarded and washed with PBS. Trypsin was then introduced to perform digestion. When the connection between cells appeared loose, the trypsin was discarded, and cell culture medium was introduced to terminate the digestion. Cells were repeatedly and gently pipetted with a pipette so as to be taken off the wall to form cell suspension. It was collected into centrifuge tubes and centrifuged. The concentration of cell suspension was adjusted to 1×10^6/0.2 ml with 0.9% sterile saline. […]
Tumor volume and body weight were recorded every 3 days, and the tumor volume was calculated using the formula: tumor volume (mm^3)=length (mm)×width (mm)^2/2. […]

[3] = cumulative dose of 1170 mg/m^2; cited from earlier work

O=C1[O][Pt]2([NH][C@@H]3CCCC[C@H]3[NH]2)[O]C1=O [oxaliplatin]
body weight of rats in model group versus control group [1]: significantly lower
mechanical paw-withdrawing threshold, model group compared with control group (CIPN rats): significantly decreased
DRG neuron morphology in model group (DRG neurons): part of cell bodies and nuclei of neurons greatly shrinked
expression of TRPM8 mRNA, increase in model group compared with control group (TRPM8 mRNA): 2-4 fold
expression of TRPV1 mRNA, increase in model group compared with control group (TRPV1 mRNA): 2-4 fold
expression of TRPA1 mRNA, increase in model group compared with control group (TRPA1 mRNA): 2-4 fold
tumour volumes compared with vehicle [2]: significantly inhibited the increase of tumour volumes
risk of neurotoxicity [3]: 50%
